Laboratory results reported in patent publication US7790887B2, “Macrolide compound in solid form, process for preparation thereof, and pharmaceutical composition containing the same” (Eisai R&D Management Co., Ltd., priority 2007, dated 2010).

assay: Comparison of solubility: time required for complete dissolution of solid forms in pH 5.0 buffer; assay type: physicochemical; conditions: 25 mM potassium acetate buffer solution (pH 5.0), room temperature, concentration of 5 mg/mL, shaken at about 100 rpm
Method: (Comparison of Solubility)
Next, the length of time required to dissolve about […] of the solid forms of formula (I) compound at room temperature in a pH 5.0 acetic acid buffer solution were measured.
After adding, at room temperature, a 25 mM potassium acetate buffer solution (pH 5.0) to, respectively, 10 mg of the white crystals prepared in Example 7, 10 mg of the amorphous powder prepared in Example 10, and 5 mg of the amorphous mass prepared in Example 11 in order to make a concentration of 5 mg/mL in each sample, the length of time required for complete dissolution under shaken at about 100 rpm was measured.

Row | SMILES | time required for dissolution
1 | CCC(O)C(C)C1OC1CC(C)(O)/C=C/C=C(\C)C1OC(=O)CC(O)CCC(C)(O)C(OC(=O)N2CCN(C3CCCCCC3)CC2)/C=C/C1C (stereo not drawn) [Amorphous mass, (8E,12E,14E)-7-{(4-cycloheptylpiperazin-1-yl)carbonyl}oxy-3,6,16,21-tetrahydroxy-6,10,12,16,20-pentamethyl-18,19-epoxytricosa-8,12,14-trien-11-olide] | about 215 seconds
2 | CCC(O)C(C)C1OC1CC(C)(O)/C=C/C=C(\C)C1OC(=O)CC(O)CCC(C)(O)C(OC(=O)N2CCN(C3CCCCCC3)CC2)/C=C/C1C (stereo not drawn) [Amorphous powder, (8E,12E,14E)-7-{(4-cycloheptylpiperazin-1-yl)carbonyl}oxy-3,6,16,21-tetrahydroxy-6,10,12,16,20-pentamethyl-18,19-epoxytricosa-8,12,14-trien-11-olide] | about 10 seconds
3 | CCC(O)C(C)C1OC1CC(C)(O)/C=C/C=C(\C)C1OC(=O)CC(O)CCC(C)(O)C(OC(=O)N2CCN(C3CCCCCC3)CC2)/C=C/C1C (stereo not drawn) [Crystals, (8E,12E,14E)-7-{(4-cycloheptylpiperazin-1-yl)carbonyl}oxy-3,6,16,21-tetrahydroxy-6,10,12,16,20-pentamethyl-18,19-epoxytricosa-8,12,14-trien-11-olide] | about 32 seconds
